Experimental data: patent publication US20250206773A1, “FORMS AND COMPOSITIONS OF SODIUM CHENODEOXYCHOLATE” (Syntis Bio, Inc., priority 2022, published 2025)
Where two headings read alike, the source gives them in different places.

Key:
[1] = Polymorph screening: solvent drop grinding; format: physicochemical; details: grinding 10 min. at RT
Protocol: Around 20 mg of NaCDC Form B was ground together with 10 μL aliquots of the corresponding solvent for 10 minutes at RT using an agate mortar with pestle. When total evaporation of the solvent was observed, another aliquot of 10 μL solvent was added and this procedure was repeated until experiment completion time. All solids were analyzed by XRPD. For the experiments where phase transformation was observed via XRPD, additional analyses of TG/DSC and/or HPLC were performed.

[2] = Dynamic vapor sorption (DVS) hygroscopicity; format: physicochemical; details: 25° C.
Protocol: DVS measurements were performed with a SMS—DVS Intrinsic. The sample size was about 50 mg, accurately weighed. The measurement was performed at 25° C., the relative humidity (RH) range investigated was 40-90-0-90% RH with 10% RH steps. After each RH change, the mass of the sample was allowed to stabilize (waiting time 10 to 60 minutes, stabilization criterion ≤0.002 g for 10 minutes). The hygroscopicity of the sample was calculated as follows: [formula] • where: • W1: weight of sample at the start of the experiment (25° C. and 40% RH) • W2: weight of sample at 25° C. and 80% RH in the first sorption cycle High Pressure Liquid Chromatography (HPLC)

[3] = Polymorph screening: vapor diffusion onto solids; format: physicochemical
Protocol: Around 20 mg of NaCDC Form B were weighed into 1.6 mL HPLC vials. Each of the aforementioned vials was inserted individually into 40 mL vessels containing initially 0.5 mL of the corresponding solvent. The vessels were isolated from light and atmosphere and allowed to stand for 12 days, in a closed cabinet at 25° C. or in an oven at 50° C. After the experimental time, the majority of the samples remained solids/wet solids (experiments VDS02-12), which were harvested and analyzed by XRPD. […] All solids were analyzed by XRPD, and depending on the results obtained, some experiments were also analyzed by HPLC and TG/DSC.

[4] = format: physicochemical
Protocol: HPLC analysis was carried out on an Agilent 1260 Infinity chromatograph, using a Hichrom C18 column 100×4.6 mm, 3.5 m, at 40° C. Method details were as follows: [table] Around 10 mg of NaCDC Form B was weighed into 1.6 mL HPLC vials. 3-5 mm PTFE-covered cylindrical magnetic stirring bars were added to the vials. […] The vials were visually inspected before each addition to check for the dissolution of the starting material, and the solvent addition was stopped when a complete dissolution was observed. The clear solutions were left to rest at RT. […] The experiments were held at each temperature for 1 h, and then they were visually inspected to see if dissolution occurred. At the end of the experimental time, the magnetic stirring bars were removed, and all slurries or solutions were dried at different temperatures depending on the boiling points of each solvent used (i.e., at 30° C., 20-21 mbar or 50° C., 21 mbar, for 21 hours; with the exception of experiments SASO7, SAS33, SAS34, SAS35, SAS36 and SAS45 which were dried at 50° C. for 43 hours). All the resulting solids were analyzed by XRPD. For several selected experiments, HPLC analysis was performed. The solids that gave new XRPD patterns were investigated by TGA/DSC. [table]

[5] = Heating of solid at 315° C. / 360° C., then XRPD and HPLC; format: physicochemical
Protocol: Based on the results obtained from the TG/DSC analysis, a sample of NaCDC Form B was heated at 315° C. and another sample at 360° C. After heating, the samples were cooled to room temperature and analyzed by XRPD (FIG. 16). […] The material obtained after heating a sample at 360° C. was amorphous.

[6] = Polymorph screening: slurry (XRPD, HPLC of recovered solids); format: physicochemical; details: slurry 7 days
Protocol: Around 15 mg of NaCDC Form B was weighted into HPLC vials, and the appropriate volume of solvent was added at RT. Slurries were aged for 7 days under stirring (500 rpm), at multiple temperatures: 5° C., 25-30° C., 40° C., and 50° C. All solids were air-dried on filter paper and then analyzed by XRPD. Depending on the results obtained by XRPD and material availability, some experiments were analyzed by HTPLC and TG/DSC.

[7] = SL70, Methyl ethyl ketone (MEK), 50° C.

HPLC purity (%) at 212 nm ([1]; SDGR01, Ethanol (EtOH) 140 μL): 83.36%
HPLC purity (%) at 212 nm ([1]; SDGR02, 2-Propanol 80 μL): 81.26%
HPLC purity (%) at 212 nm ([1]; SDGR03, 2,2,2-Trifluoroethanol (TFE) 90 μL): 90.87%
XRPD ([1]; SDGR04, Diisopropyl ether 160 μL): SM, l.c.
HPLC purity (%) at 212 nm ([1]; SDGR05, MeOH:EtOAc (1:1 v/v) 260 μL): 82.04%
HPLC purity (%) at 212 nm ([1]; SDGR06, MeOH:Acetone (1:1 v/v) 240 μL): 85.56%
HPLC purity (%) at 212 nm ([1]; SDGR07, EtOH:MeCN (1:1 v/v) 190 μL): 86.54%
HPLC purity (%) at 212 nm ([1]; SDGR08, EtOH:n-Heptane (1:1 v/v) 220 μL): 90.36%
hygroscopicity by DVS [2]: slightly hygroscopic
weight change in the first sorption cycle (DVS) ([2]; 40% RH to 80% RH): 0.8%
HPLC purity (%) at 212 nm ([3]; VDS01, Methanol (MeOH) vapor, 25° C., 12 days, fine suspension, evap. at 30° C., 21 mbar, overnight): 89.99%
XRPD ([3]; VDS03, Ethyl acetate (EtOAc) vapor, diffusion at 25° C. after 12 days): SM, P.O.
HPLC purity (%) at 212 nm ([3]; VDS05, Ethanol (EtOH) vapor, diffusion at 50° C. after 12 days): 92.11%
XRPD ([3]; VDS06, 2-Propanol (2-PrOH) vapor, diffusion at 50° C. after 12 days): SM, P.O.
XRPD ([3]; VDS08, Diisopropyl ether vapor, diffusion at 50° C. after 12 days): SM, P.O.
HPLC purity (%) at 212 nm ([3]; VDS09, 2,2,2-Trifluoroethanol (TFE) vapor, diffusion at 50° C. after 12 days, slurry air-dried on filter paper): 90.89%
XRPD ([3]; VDS11, Acetonitrile (MeCN) vapor, diffusion at 50° C. after 12 days): SM, P.O.
HPLC purity (%) at 212 nm ([3]; VDS12, Methyl ethyl ketone (MEK) vapor, diffusion at 50° C. after 12 days): 93.65%
HPLC (%) 212 nm ([4]; SAS01, Water (H2O), solid after evaporation A (30° C., 20-21 mbar, 21 hours)): 84.9%
HPLC (%) 212 nm ([4]; SAS03, Ethanol (EtOH), solid after evaporation A (30° C., 21 hours)): 71.5%
HPLC (%) 212 nm ([4]; SAS04, 2-Propanol (2-PrOH), solid after evaporation A (30° C., 21 hours)): 96.6%
HPLC (%) 212 nm ([4]; SAS05, 2-Methyl-1-propanol (Isobutanol), solid after evaporation A (30° C., 21 hours)): 96.5%
HPLC (%) 212 nm ([4]; SAS06, 2-Butanol, solid after evaporation A (30° C., 21 hours)): 97.5%
HPLC (%) 212 nm ([4]; SAS07, 2-Ethoxyethanol, solid after evaporation C (50° C., 43 hours)): 38.0%
HPLC (%) 212 nm ([4]; SAS08, 2,2,2-Trifluoroethanol (TFE), solid after evaporation A (30° C., 21 hours)): 91.3%
HPLC (%) 212 nm ([4]; SAS09, 3-Methyl-1-butanol (Isoamyl alcohol), solid after evaporation B (50° C., 21 hours)): 48.1%
HPLC (%) 212 nm ([4]; SAS20, n-Butyl acetate, solid after evaporation B (50° C., 21 hours)): 96.3%
HPLC (%) 212 nm ([4]; SAS24, Diisopropyl ether, solid after evaporation A (30° C., 21 hours)): 94.4%
HPLC (%) 212 nm ([4]; SAS33, Benzonitrile, solid after evaporation C (50° C., 43 hours)): 68.0%
HPLC (%) 212 nm ([4]; SAS34, N,N-Dimethyl-acetamide, solid after evaporation C (50° C., 43 hours)): 1.2%
HPLC (%) 212 nm ([4]; SAS35, N-Methyl-pyrrolidone, gel after evaporation C (50° C., 43 hours)): 1.5%
HPLC (%) 212 nm ([4]; SAS36, Dimethyl sulfoxide (DMSO), solid after evaporation C (50° C., 43 hours)): 32.4%
HPLC (%) 212 nm ([4]; SAS39, EtOH:MeCN (1:1 v/v), solid after evaporation A (30° C., 21 hours)): 80.1%
HPLC (%) 212 nm ([4]; SAS40, H2O:THF (1:1 v/v), solid after evaporation A (30° C., 21 hours)): 77.5%
HPLC (%) 212 nm ([4]; SAS41, H2O:EtOH (1:1 v/v), solid after evaporation A (30° C., 21 hours)): 90.7%
HPLC (%) 212 nm ([4]; SAS42, H2O:2-PrOH (1:1 v/v), solid after evaporation A (30° C., 21 hours)): 92.0%
HPLC (%) 212 nm ([4]; SAS43, H2O:MeCN (1:1 v/v), solid after evaporation A (30° C., 21 hours)): 91.1%
HPLC (%) 212 nm ([4]; SAS44, H2O:Acetone (1:1 v/v), solid after evaporation A (30° C., 21 hours)): 93.7%
HPLC (%) 212 nm ([4]; SAS45, H2O:DMSO (1:1 v/v), solid after evaporation C (50° C., 43 hours)): 30.2%
HPLC (%) 212 nm ([4]; SAS46, MeOH:EtOAc (1:1 v/v), solid after evaporation A (30° C., 21 hours)): 89.0%
HPLC (%) 212 nm ([4]; SAS47, MeOH:Acetone (1:1 v/v), solid after evaporation A (30° C., 21 hours)): 91.0%
HPLC (%) 212 nm ([4]; SAS48, EtOH:n-Heptane (1:1 v/v), solid after evaporation A (30° C., 21 hours)): 90.1%
HPLC purity of recovered solids (dropped from 99.2%) ([4]; experiments with 2-ethoxyethanol, 3-methyl-1-butanol, benzonitrile, DMAc, NMP, DMSO, H2O:DMSO (1:1 v/v)): 1.2-68.0%
XRPD after heating ([5]; heated at 360° C.): amorphous
HPLC purity after heating ([5]; sample heated at 315° C., cooled to room temperature): 66.9%
HPLC purity (%) at 212 nm ([6]; SL01, Ethanol (EtOH), 5° C.): 89.70%
XRPD ([6]; SL05, Methylcyclohexane, 5° C.): SM, P.O.
XRPD ([6]; SL06, n-Heptane, 5° C.): SM, l.c.
HPLC purity (%) at 212 nm ([6]; SL13, tert-Butyl methyl ether, 5° C.): 87.21%
XRPD ([6]; SL15, Tetrahydrofuran (THF), 5° C.): SM, l.c.
XRPD ([6]; SL19, Acetonitrile (MeCN), 5° C.): SM, l.c.
HPLC purity (%) at 212 nm ([6]; SL22, EtOH:MeCN (1:1 v/v), 5° C.): 91.93%
HPLC purity (%) at 212 nm ([6]; SL23, EtOH:n-Heptane (1:1 v/v), 5° C.): 93.64%
HPLC purity (%) at 212 nm ([6]; SL26, Ethanol (EtOH), 25-30° C.): 92.34%
HPLC purity (%) at 212 nm ([6]; SL27, 2-Propanol (2-PrOH), 25-30° C.): 88.33%
XRPD ([6]; SL28, 2-Methyl-1-propanol (Isobutanol), 25-30° C.): l.c., SM
XRPD ([6]; SL29, 2-Butanol, 25-30° C.): SM, l.c.
XRPD ([6]; SL31, Methylcyclohexane, 25-30° C., solvent almost evap./consumed on the 7th day): SM, l.c.
HPLC purity (%) at 212 nm ([6]; SL39, tert-Butyl methyl ether, 25-30° C.): 84.05%
XRPD ([6]; SL41, Tetrahydrofuran (THF), 25-30° C.): SM, l.c.
HPLC purity (%) at 212 nm ([6]; SL48, EtOH:MeCN (1:1 v/v), 25-30° C.): 83.87%
HPLC purity (%) at 212 nm ([6]; SL49, EtOH:n-Heptane (1:1 v/v), 25-30° C.): 93.06%
HPLC purity (%) at 212 nm ([6]; SL52, Ethanol (EtOH), 40° C.): 87.98%
HPLC purity (%) at 212 nm ([6]; SL56, 2-Propanol (2-PrOH), 50° C.): 84.92%
XRPD ([6]; SL60, n-Heptane, 50° C., solvent almost evap./consumed on 7th day): l.c., SM
HPLC purity (%) at 212 nm ([6]; SL68, Tetrahydrofuran (THF), 50° C.): 78.16%
HPLC purity (%) at 212 nm [6, 7]: 90.88%
XRPD [6, 7]: SM, h.c.
HPLC purity (%) at 212 nm ([6]; SL74, EtOH:MeCN (1:1 v/v), 50° C.): 78.36%
HPLC purity (%) at 212 nm ([6]; SL75, EtOH:n-Heptane (1:1 v/v), 50° C.): 85.10%
Compound: C[C@H](CCC(=O)[O-])[C@H]1CC[C@H]2[C@@H]3[C@H](O)C[C@@H]4C[C@H](O)CC[C@]4(C)[C@H]3CC[C@]12C.[Na+] [Form B, sodium chenodeoxycholate]
XRPD after heating ([5]; heated at 315° C.): different diffractogram than the starting material
